Results from patent publication US9271978B2 (Zenith Epigenetics Corp., priority 2012, dated 2016).

Assays:
[1] = test system: c-myc; experiment: Inhibition of c-myc expression in MV4-11 cells (mRNA, real-time PCR); format: cell-based; parameters: key: Active: Compounds with an IC50 value less than 30 μM were deemed to be active.; Not Active: Compounds with an IC50 value less than 30 μM were deemed to be active; conditions: Human AML MV4-11 cells, 3 h incubation
Method in brief: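 MV4-11 cells (2.5×10^4) treated with compound or 0.1% DMSO for 3 h at 37 °C. c-myc mRNA measured by RT real-time PCR duplexed with cyclophilin. IC50 from dose–response curve.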

[2] = test system: hIL-6 mRNA; experiment: Inhibition of hIL-6 mRNA transcription in U937 cells; format: cell-based, human; parameters: key: Active: Compounds with an IC50 value less than 30 μM were deemed to be active.; Not Active: Compounds with an IC50 value less than 30 μM were deemed to be active; conditions: LPS stimulation, active = IC50 <30 μM
Method in brief: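 U937 cells differentiated 3 days with 60 ng/mL PMA, pretreated 1 h with compound, then stimulated with 1 ug/mL E. coli LPS for 3 h at 37° C. hIL-6 mRNA quantified by one-step qRT-PCR, Ct normalized to internal control, expressed as fold induction relative to control.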

[3] = test system: ApoA-I mRNA; experiment: Up-regulation of hApoA-1 mRNA transcription in Huh7 cells; format: cell-based, human; parameters: key: Active: Compounds with an EC170 value less than 30 μM were deemed to be active; conditions: 48 h treatment, ApoA-I mRNA by real-time PCR, Active = EC170 less than 30 μM
Description: In this example, ApoA-I mRNA in tissue culture cells was quantitated to measure the transcriptional up-regulation of ApoA-I when treated with a compound of the present disclosure.
Huh7 cells (2.5×10^5 per well) were plated in a 96-well plate using 100 μL DMEM per well, (Gibco DMEM supplemented with penicillin/streptomycin and 10% FBS), 24 h before the addition of the compound of interest. After 48 h treatment, the spent media was removed from the Huh-7 cells and placed on ice (for immediate use) or at −80° C. (for future use) with the “LDH cytotoxicity assay Kit II” from Abcam. The cells remaining in the plate were rinsed with 100 μL PBS.
Then 85 μL of cell lysis solution was added to each well and incubated for 5-10 min at room temperature, to allow for complete cell lysis and detachment. mRNA was then prepared using the “mRNA Catcher PLUS plate” from Life Technologies, according to the protocol supplied. After the last wash, as much wash buffer as possible was aspirated without allowing the wells to dry. Elution Buffer (E3, 80 μL) was then added to each well. mRNA was then eluted by incubating the mRNA Catcher PLUS plate with Elution Buffer for 5 min at 68° C., and then 1 min at 4° C. Catcher plates with mRNA eluted were kept on ice for use or stored at −80° C.
The eluted mRNA isolated was then used in a one-step real-time PCR reaction, using components of the Ultra Sense Kit together with Life Technologies primer-probe mixes. Real-time PCR data was analyzed, using the Ct values, to determine the fold induction of each unknown sample, relative to the control (that is, relative to the control for each independent DMSO concentration).
Compounds with an EC170 value less than 30 μM were deemed to be active.

[4] = test system: human AML MV-4-11 (CRL-9591) cells; experiment: Inhibition of cell proliferation in MV4-11 cells; format: cell-based; parameters: key: Active: Compounds with an IC50 value less than 30 μM were deemed to be active.; Not Active: Compounds with an IC50 value less than 30 μM were deemed to be active; conditions: human AML MV-4-11 cells, 72 h; active = IC50 <30 μM
Method in brief: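 Exponentially growing MV-4-11 cells (5×10^4/well) were treated immediately with two-fold dilutions of compound from 30 μM to 0.2 μM, in triplicate, for 72 h at 37° C, 5% CO2. Viability was measured by MTS absorbance at 490 nm after 3–4 h. Proliferation relative to DMSO after blank correction gave IC50.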

[5] = target: T1, Brd4 bromodomain 1 (BRD4(1)) (Homo sapiens, UniProt O60885); experiment: Inhibition of tetra-acetylated histone H4 binding to Brd4 bromodomain 1 (TR-FRET); parameters: key: Active: Compounds with an IC50 value less than 30 μM were deemed to be active.; Not Active: Compounds with an IC50 value less than 30 μM were deemed to be active; conditions: tetra-acetylated histone H4 peptide, active = IC50 <30 μM
T1 construct: Illustrative results with the first bromodomain of Brd4; made in house; host or cells: E. coli BL21 (DE3)
Method in brief: (§1)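 N-terminally His-tagged bromodomains (200 nM), expressed in E. coli, were incubated with biotinylated tetra-acetylated histone H4 peptide (25-50 nM), Eu-cryptate streptavidin and XL665 anti-His antibody in HEPES pH 7.4 buffer with KF, 0.2% DMSO, 2 h at room temperature. Inhibition read as decreased 665/620 nm TR-FRET; IC50 from dose-response curves.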

[6] = target: T2, second bromodomain of Brd2 (BRD2(2)) (Homo sapiens, UniProt P25440); experiment: Inhibition of tetra-acetylated histone H4 binding to Brd2 bromodomain 2 (TR-FRET); parameters: key: Active: Compounds with an IC50 value less than 30 μM were deemed to be active.; Not Active: Compounds with an IC50 value less than 30 μM were deemed to be active; conditions: tetra-acetylated histone H4 peptide, active = IC50 <30 μM
T2 construct: made in house; host or cells: E. coli BL21 (DE3)
T2 sequence (P25440 344-453 limits assumed): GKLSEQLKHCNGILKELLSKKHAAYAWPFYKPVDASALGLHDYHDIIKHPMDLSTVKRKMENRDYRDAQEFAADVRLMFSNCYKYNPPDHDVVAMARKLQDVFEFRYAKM
Method in brief: as §1

c-myc activity (IC50 <30 μM) [1] | IL-6 activity (IC50 <30 μM) [2] | Cell Proliferation activity (IC50 <30 μM) [4] | FRET activity (IC50 <30 μM) BRD4(1) [5] | FRET activity (IC50 <30 μM) BRD2(2) [6] | SMILES | ApoA-1 activity (EC170 <30 μM) [3]
Active | Not Active | Active | Active | – | Cc1noc(C)c1-c1cc(-c2cccc(C(N)=O)c2)c(=O)n(Cc2ccccc2)c1 [Example 185, 3-(1-benzyl-5-(3,5-dimethylisoxazol-4-yl)-2-oxo-1,2-dihydropyridin-3-yl)benzamide] | Active
Active | Active | Active | Active | – | COc1cc(-c2c(C)noc2C)cn(Cc2ccccc2)c1=O [Example 210, 1-benzyl-5-(3,5-dimethylisoxazol-4-yl)-3-methoxypyridin-2(1H)-one] | Active
Active | – | Active | Active | – | Cc1noc(C)c1-c1cc(N2CCC2)c(=O)n(Cc2ccccc2)c1 [Example 183, 3-(Azetidin-1-yl)-1-benzyl-5-(3,5-dimethylisoxazol-4-yl)pyridin-2(1H)-one] | Active
Active | Active | Active | Active | – | Cc1onc(CO)c1-c1cc(N)c(=O)n(Cc2ccccc2)c1 [Example 189, 3-Amino-1-benzyl-5-(3-(hydroxymethyl)-5-methylisoxazol-4-yl)pyridin-2(1H)-one] | Active
Active | Active | Active | Active | – | Cc1noc(C)c1-c1cc(NC(C)C)c(=O)n(Cc2ccccc2)c1 [Example 192, 1-benzyl-5-(3,5-dimethylisoxazol-4-yl)-3-(isopropylamino)pyridin-2(1H)-one] | Active
Active | Active | Not Active | Active | – | Cc1noc(C)c1-c1cc(Nc2ccccc2)c(=O)n(Cc2ccc(F)cc2)c1 [Example 182, 5-(3,5-dimethylisoxazol-4-yl)-1-(4-fluorobenzyl)-3-(phenylamino)pyridin-2(1H)-one] | Active
Not Active | Not Active | Not Active | Active | – | Cc1noc(C)c1-c1cc(C#N)c(=O)n(Cc2ccccc2)c1 [Example 198, 1-Benzyl-5-(3,5-dimethylisoxazol-4-yl)-2-oxo-1,2-dihydropyridine-3-carbonitrile] | Active
Active | Active | Active | Active | – | Cc1noc(C)c1-c1cc(Nc2cncc(F)c2)c(=O)n(Cc2ccccc2)c1 [Example 223, 1-benzyl-5-(3,5-dimethylisoxazol-4-yl)-3-((5-fluoropyridin-3-yl)amino)pyridin-2(1H)-one] | Active
Not Active | – | – | Active | Active | COc1cc(-c2ccc(=O)n(Cc3ccc(C#N)cc3)n2)cc(OC)c1OC [Example 16, 4-((6-Oxo-3-(3,4,5-trimethoxyphenyl)pyridazin-1(6H)-yl)methyl)benzonitrile] | Active
– | Active | – | Active | – | C=Cc1ccc(Cn2cc(-c3c(C)noc3C)ccc2=O)cc1 [Example 218, 5-(3,5-Dimethylisoxazol-4-yl)-1-(4-vinylbenzyl)pyridin-2(1H)-one] | Active
Active | Active | – | Active | Active | Cc1noc(C)c1-c1cc(Nc2ccccc2)c(=O)n(Cc2ccccc2)c1 [Example 72, 1-Benzyl-5-(3,5-dimethylisoxazol-4-yl)-3-(phenylamino)pyridin-2(1H)-one] | Active
– | Not Active | – | Active | – | Cc1noc(C)c1Nc1cc(-c2c(C)noc2C)cn(Cc2ccccc2)c1=O [Example 217, 1-benzyl-5-(3,5-dimethylisoxazol-4-yl)-3-((3,5-dimethylisoxazol-4-yl)amino)pyridin-2(1H)-one] | Active
– | Active | Active | Active | Active | Cc1noc(C)c1-c1cn(Cc2ccccc2)c(=O)cn1 [Example 6, 1-Benzyl-5-(3,5-dimethylisoxazol-4-yl)pyrazin-2(1H)-one] | Active
– | Not Active | – | Active | Active | Cc1noc(C)c1-c1ccc(=O)n(C(C)c2ccccn2)c1 (stereo not shown) [Example 112, 5-(3,5-Dimethylisoxazol-4-yl)-1-(1-(pyridin-2-yl)ethyl)pyridin-2(1H)-one] | Active
– | Active | – | Active | Active | Cc1noc(C)c1-c1ccc(=O)n([C@H](C)c2ccc(F)cc2)c1 (single isomer, unassigned) [Example 111] | Active
– | Active | Active | Active | Active | Cc1noc(C)c1-c1ccc(=O)n(Cc2ccc(C(F)(F)F)cc2)c1 [Example 7, 5-(3,5-Dimethylisoxazol-4-yl)-1-(4-(trifluoromethyl)benzyl)pyridin-2(1H)-one] | Active
Active | – | Active | Active | – | Cc1noc(C)c1-c1cc(Nc2ccn(C)n2)c(=O)n(Cc2ccccc2)c1 [Example 184, 1-benzyl-5-(3,5-dimethylisoxazol-4-yl)-3-((1-methyl-1H-pyrazol-3-yl)amino)pyridin-2(1H)-one] | Active
